Measured values: PubChem BioAssay (NCI)
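Test compounds were applied to cells in 96-well plates for 48 hours at 5 doses. Here, GI50 denotes the concentration required for 50% inhibition of growth. Definition used: TGI = concentration required for complete inhibition of growth.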

Assays:
Test in all cases: NCI anticancer screen, dose series, 48 h
[1] = tested on: 786-0 renal
[2] = tested on: A498 renal
[3] = tested on: A549 NSCLC
[4] = tested on: BT-549 breast
[5] = tested on: CAKI-1 renal
[6] = tested on: CCRF-CEM leukemia
[7] = tested on: COLO 205 colon
[8] = tested on: DU-145 prostate
[9] = tested on: EKVX NSCLC
[10] = tested on: HCC-2998 colon
[11] = tested on: HCT-116 colon
[12] = tested on: HCT-15 colon
[13] = tested on: HL-60(TB) leukemia
[14] = tested on: HOP-62 NSCLC
[15] = tested on: HOP-92 NSCLC
[16] = tested on: HS 578T breast
[17] = tested on: HT29 colon
[18] = tested on: IGROV1 ovarian
[19] = tested on: K-562 leukemia
[20] = tested on: KM12 colon
[21] = tested on: LOX IMVI melanoma
[22] = tested on: M14 melanoma
[23] = tested on: MALME-3M melanoma
[24] = tested on: MCF7 breast
[25] = tested on: MDA-MB-231 breast
[26] = tested on: MDA-MB-435
[27] = tested on: MOLT-4 leukemia
[28] = tested on: NCI-H226 lung
[29] = tested on: NCI-H23 lung
[30] = tested on: NCI-H460 lung
[31] = tested on: NCI-H522 lung
[32] = tested on: NCI/ADR-RES ovarian
[33] = tested on: OVCAR-3 ovarian
[34] = tested on: OVCAR-4 ovarian
[35] = tested on: OVCAR-8 ovarian
[36] = tested on: PC-3 prostate
[37] = tested on: RPMI-8226 leukemia
[38] = tested on: RXF 393 renal
[39] = tested on: SF-268 CNS
[40] = tested on: SF-295 CNS
[41] = tested on: SK-MEL-2 melanoma
[42] = tested on: SK-MEL-5 melanoma
[43] = tested on: SK-OV-3 ovarian
[44] = tested on: SN12C renal
[45] = tested on: SNB-19 CNS
[46] = tested on: SNB-75 CNS
[47] = tested on: SR leukemia
[48] = tested on: SW-620 colon
[49] = tested on: T-47D breast
[50] = tested on: TK-10 renal
[51] = tested on: U251 CNS
[52] = tested on: UACC-257 melanoma
[53] = tested on: UACC-62 melanoma
[54] = tested on: UO-31 renal

Q: Which GI50 [1] does the source give for `CC(C)[C@H]1COC(=O)N1[C@@H]1C(=O)N([C@@H](CCC(=O)N2CCN(C3CCCC3)CC2)C(=O)N[C@@H]2CCCc3ccccc32)[C@@H]1/C=C/c1cccc(Br)c1` here?
A: Its GI50 is 2.01 µM.

Q: What about the TGI [1] of the same compound?
A: Its TGI is 4.69 µM.

Q: And the GI50 [2]?
A: Its GI50 is 1.4 µM.

Q: What about the TGI [2] of the same compound?
A: Its TGI is 4.04 µM.

Q: What about the GI50 [3] of the same compound?
A: Its GI50 is 3.05 µM.

Q: What about the TGI [3] of the same compound?
A: The TGI was 11.5 µM.

Q: What about the GI50 [4] of the same compound?
A: The GI50 was 1.46 µM.

Q: What about the TGI [4] of the same compound?
A: The TGI was 3.11 µM.

Q: What about the GI50 [5] of the same compound?
A: Its GI50 is 1.88 µM.

Q: What about the TGI [5] of the same compound?
A: The TGI was 4.01 µM.

Q: What about the GI50 [6] of the same compound?
A: Its GI50 is 2.91 µM.

Q: What about the TGI [6] of the same compound?
A: The TGI was 8.4 µM.

Q: What about the GI50 [7] of the same compound?
A: The GI50 was 1.5 µM.

Q: And the TGI [7]?
A: Its TGI is 3.11 µM.

Q: And the GI50 [8]?
A: The GI50 was 1.52 µM.

Q: What about the TGI [8] of the same compound?
A: Its TGI is 7.57 µM.

Q: What about the GI50 [9] of the same compound?
A: Its GI50 is 3.01 µM.

Q: What about the TGI [9] of the same compound?
A: Its TGI is 15.2 µM.

Q: And the GI50 [10]?
A: Its GI50 is 1.83 µM.

Q: And the TGI [10]?
A: The TGI was 3.63 µM.

Q: What about the GI50 [11] of the same compound?
A: Its GI50 is 1.57 µM.

Q: What about the TGI [11] of the same compound?
A: The TGI was 2.99 µM.

Q: What about the GI50 [12] of the same compound?
A: The GI50 was 1.69 µM.

Q: What about the TGI [12] of the same compound?
A: The TGI was 3.63 µM.

Q: What about the GI50 [13] of the same compound?
A: The GI50 was 1.91 µM.

Q: What about the TGI [13] of the same compound?
A: Its TGI is 4.9 µM.

Q: What about the GI50 [14] of the same compound?
A: The GI50 was 1.82 µM.

Q: What about the TGI [14] of the same compound?
A: Its TGI is 4.96 µM.

Q: And the GI50 [15]?
A: Its GI50 is 1.5 µM.

Q: What about the TGI [15] of the same compound?
A: The TGI was 4.21 µM.

Q: And the GI50 [16]?
A: Its GI50 is 2.5 µM.

Q: And the TGI [16]?
A: Its TGI is 9.31 µM.

Q: What about the GI50 [17] of the same compound?
A: Its GI50 is 1.3 µM.

Q: What about the TGI [17] of the same compound?
A: Its TGI is 2.77 µM.

Q: What about the GI50 [18] of the same compound?
A: Its GI50 is 1.83 µM.

Q: What about the TGI [18] of the same compound?
A: Its TGI is 5.9 µM.

Q: What about the GI50 [19] of the same compound?
A: Its GI50 is 2.17 µM.

Q: What about the TGI [19] of the same compound?
A: The TGI was 4.95 µM.

Q: What about the GI50 [20] of the same compound?
A: Its GI50 is 2.17 µM.

Q: What about the TGI [20] of the same compound?
A: The TGI was 5.83 µM.

Q: And the GI50 [21]?
A: Its GI50 is 0.376 µM.

Q: What about the TGI [21] of the same compound?
A: Its TGI is 1.55 µM.

Q: And the GI50 [22]?
A: Its GI50 is 1.8 µM.

Q: What about the TGI [22] of the same compound?
A: The TGI was 3.46 µM.

Q: What about the GI50 [23] of the same compound?
A: The GI50 was 1.62 µM.

Q: And the TGI [23]?
A: The TGI was 3.26 µM.

Q: And the GI50 [24]?
A: The GI50 was 2.09 µM.

Q: And the TGI [24]?
A: Its TGI is 6.33 µM.

Q: What about the GI50 [25] of the same compound?
A: Its GI50 is 1.86 µM.

Q: What about the TGI [25] of the same compound?
A: Its TGI is 3.77 µM.

Q: And the GI50 [26]?
A: Its GI50 is 1.26 µM.

Q: And the TGI [26]?
A: The TGI was 2.65 µM.

Q: And the GI50 [27]?
A: Its GI50 is 1.45 µM.

Q: What about the TGI [27] of the same compound?
A: The TGI was 7.39 µM.

Q: What about the GI50 [28] of the same compound?
A: Its GI50 is 3.49 µM.

Q: And the TGI [28]?
A: The TGI was 15.6 µM.

Q: What about the GI50 [29] of the same compound?
A: Its GI50 is 3.46 µM.

Q: What about the TGI [29] of the same compound?
A: Its TGI is 16.6 µM.

Q: What about the GI50 [30] of the same compound?
A: The GI50 was 1.69 µM.

Q: And the TGI [30]?
A: Its TGI is 3.62 µM.

Q: What about the GI50 [31] of the same compound?
A: Its GI50 is 1.75 µM.

Q: What about the TGI [31] of the same compound?
A: Its TGI is 3.51 µM.

Q: What about the GI50 [32] of the same compound?
A: Its GI50 is 2.98 µM.

Q: What about the TGI [32] of the same compound?
A: Its TGI is 11.8 µM.

Q: And the GI50 [33]?
A: Its GI50 is 1.97 µM.

Q: What about the TGI [33] of the same compound?
A: Its TGI is 3.92 µM.

Q: What about the GI50 [34] of the same compound?
A: The GI50 was 2.79 µM.

Q: What about the TGI [34] of the same compound?
A: The TGI was 15 µM.

Q: What about the GI50 [35] of the same compound?
A: The GI50 was 4.12 µM.

Q: What about the TGI [35] of the same compound?
A: The TGI was 15.4 µM.

Q: And the GI50 [36]?
A: Its GI50 is 1.8 µM.

Q: And the TGI [36]?
A: Its TGI is 4.28 µM.

Q: And the GI50 [37]?
A: Its GI50 is 1.47 µM.

Q: And the TGI [37]?
A: Its TGI is 3.93 µM.

Q: And the GI50 [38]?
A: Its GI50 is 1.59 µM.

Q: What about the TGI [38] of the same compound?
A: Its TGI is 3.47 µM.

Q: What about the GI50 [39] of the same compound?
A: The GI50 was 1.11 µM.

Q: And the TGI [39]?
A: The TGI was 2.83 µM.

Q: And the GI50 [40]?
A: Its GI50 is 2.15 µM.

Q: What about the TGI [40] of the same compound?
A: Its TGI is 5.05 µM.

Q: And the GI50 [41]?
A: The GI50 was 1.69 µM.

Q: And the TGI [41]?
A: Its TGI is 3.3 µM.

Q: What about the GI50 [42] of the same compound?
A: Its GI50 is 1.51 µM.

Q: And the TGI [42]?
A: Its TGI is 2.84 µM.

Q: And the GI50 [43]?
A: The GI50 was 2.82 µM.

Q: What about the TGI [43] of the same compound?
A: The TGI was 8.21 µM.

Q: What about the GI50 [44] of the same compound?
A: Its GI50 is 2.27 µM.

Q: And the TGI [44]?
A: Its TGI is 5.51 µM.

Q: And the GI50 [45]?
A: Its GI50 is 2.77 µM.

Q: And the TGI [45]?
A: The TGI was 14.5 µM.

Q: What about the GI50 [46] of the same compound?
A: Its GI50 is 1.36 µM.

Q: And the TGI [46]?
A: The TGI was 3.91 µM.

Q: What about the GI50 [47] of the same compound?
A: The GI50 was 1.87 µM.

Q: What about the TGI [47] of the same compound?
A: Its TGI is 4.71 µM.

Q: What about the GI50 [48] of the same compound?
A: The GI50 was 1.95 µM.

Q: What about the TGI [48] of the same compound?
A: Its TGI is 4.57 µM.

Q: What about the GI50 [49] of the same compound?
A: The GI50 was 2.26 µM.

Q: What about the GI50 [50] of the same compound?
A: Its GI50 is 1.46 µM.

Q: What about the TGI [50] of the same compound?
A: The TGI was 3.47 µM.

Q: And the GI50 [51]?
A: Its GI50 is 1.9 µM.

Q: And the TGI [51]?
A: Its TGI is 3.51 µM.

Q: And the GI50 [52]?
A: The GI50 was 1.63 µM.

Q: What about the TGI [52] of the same compound?
A: Its TGI is 3.44 µM.

Q: What about the GI50 [53] of the same compound?
A: Its GI50 is 1.8 µM.

Q: What about the TGI [53] of the same compound?
A: The TGI was 3.58 µM.

Q: And the GI50 [54]?
A: The GI50 was 1.49 µM.

Q: And the TGI [54]?
A: Its TGI is 3.04 µM.
